System: HIV WT transcript
Test: NASBA amplification of functionalised, captured and eluted HIV transcripts
Type: biochemical
Method: In the preceding example 12, 4 μg of a WT HIV transcript (1083 nucleotides, internal production, bioMérieux batch 841470301, C=3.27E12 copies μl) was biotinylated with different concentrations of the compound (24) (0 mM, 15 mM, 30 mM, 120 mM, 180 mM, i.e. the experiments #1-7 of Table 6). This transcript was then captured on Merck MagPrep 25 Streptavidin magnetic particles, then, after rinsing, the particles were subjected to a 100 mM DTT treatment in PBS 1x pH 7 at 40° C. for one hour, in order to cleave the disulfide bond (SS) and elute the transcripts with —SH anthranilate groups, as shown in FIG. 16. We evaluated the ability of these transcripts to be amplified by the NASBA technology. This evaluation was performed as a comparison with an unfunctionalised “bare” HIV_WT transcript range.
The amplification is performed on a NucliSENS EasyQ instrument (bioMérieux, Lyon, France) and with a NucliSENS EasyQ HIV-1 V2.0 kit (bioMérieux, Lyon, France, ref. 285033, batch 09122106). The software used is NucliSENS EasyQ Director, and the protocol is QL1-60 1.0 (bioMérieux, Lyon, France).
After functionalisation with compound 24, capture and elution in 8 μL of 100 mM DTT, as described in example 12, the transcripts of experiments #2-5 from Table 7 were assayed on RNA 6000 NANO chip with the AGILENT bioanalyzer (Santa Clara, USA), and were diluted in the following concentrations: 1000 copies, 100 copies, 50 copies, 10 copies, 1 copy, 0 copies in 15 μl. An HIV IC transcript (internal control of the same amplified sequence as the WT (wild type) transcript, but detected by a molecular beacon carrying another fluorophore) diluted to 360 copies is added to the 15 μl volume, and will be present in all of the wells in which the amplifications occur. This transcript serves to monitor the correct operation of the amplification. The tests are carried out in triplicate.
Six Accuspheres ENZ II (NucliSENS EasyQ HIV-1 V2.0 kit, ref. 285033, bioMérieux, Lyon, France) are deposited into a 1.5 ml polypropylene tube. A volume of 270 μL of ENZdil H (NucliSENS EasyQ HIV-1 V2.0 kit, ref. 285033, bioMérieux, Lyon, France) is added onto the Accuspheres, and 15 minutes are allowed to pass, for them to dissolve completely. The twelve Accuspheres PRM H (NucliSENS EasyQ HIV-1 V2.0 kit, ref. 285033, bioMérieux, Lyon, France) are deposited into a 1.5 ml polypropylene tube 1080 μL of PRMdi l H (NucliSENS EasyQ HIV-1 V2.0 kit, ref. 285033, bioMérieux, Lyon, France) is added onto these Accuspheres and the mixture is immediately vortex stirred until the Accuspheres dissolve completely. After complete dissolution in the two tubes (mix ENZ II and mix PRM H), these mixtures are centrifuged with a benchtop centrifuge. […]

Cn1c(=O)oc(=O)c2cc(NC(=O)CCSSCCNC(=O)CCOCCOCCOCCOCCNC(=O)CCCCC3SCC4NC(=O)NC43)ccc21 (stereo not shown) [5Biot PEG4 SS IA Me 24]
Minimum number of copies detected (15 mM functionalisation reagent): 10 copies | Minimum number of copies detected (30 mM functionalisation reagent): 10 copies | Minimum number of copies detected (120 mM functionalisation reagent): 100 copies | Minimum number of copies detected (180 mM functionalisation reagent): 1000 copies

— patent US20130253179A1, “Functionalization Processes and Reactants Used in Such Processes Using an Isatoic Anhydride or a Derivative Thereof, Biological Molecules Thus Treated and Kits” (priority 2010, published 2013)
